Patent US8741879B2, “Petroleum jelly-free unguent compositions comprising vitamin D compounds and optionally steroidal anti-inflammatory agents” (Galderma S.A., priority 2006, dated 2014)

Legend:
[1] = Stability of calcitriol 30 ppm solution in absolute ethanol with 0.02% BHT (HPLC assay against a reference substance); type: physicochemical; conditions: 30 ppm in absolute ethanol
Source text: b) Stability of Calcitriol in Ethanol: Calcitriol solution 30 ppm in qs 100% absolute ethanol in the presence of 0.02% BHT. Assay technique by HPLC against a reference substance. The starting time (T0) is considered to be 100%.

[2] = Solubility of clobetasol propionate in solvents (HPLC); type: physicochemical
Source text: a) Solubility of Clobetasol Propionate:

SMILES | Calcitriol remaining (T0 = 100%) ([1]; +4° C., T1week) [%] | Calcitriol remaining (T0 = 100%) ([1]; +4° C., T2weeks) [%] | Calcitriol remaining (T0 = 100%) ([1]; +4° C., T3weeks) [%] | Calcitriol remaining (T0 = 100%) ([1]; +4° C., T4weeks) [%] | Calcitriol remaining (T0 = 100%) ([1]; +30° C., T2weeks) [%] | Calcitriol remaining (T0 = 100%) ([1]; +30° C., T4weeks) [%] | Calcitriol remaining (T0 = 100%) ([1]; −18° C., T1week) [%] | Calcitriol remaining (T0 = 100%) ([1]; −18° C., T2weeks) [%] | Calcitriol remaining (T0 = 100%) ([1]; −18° C., T3weeks) [%] | Calcitriol remaining (T0 = 100%) ([1]; −18° C., T4weeks) [%] | Solubility ([2]; in Ethanol 96) [mg/g] | Solubility ([2]; in Propylene glycol) [mg/g] | Solubility ([2]; in Transcutol) [mg/g]
C=C1/C(=C\C=C2/CCC[C@]3(C)[C@@H]([C@H](C)CCCC(C)(C)O)CC[C@@H]23)C[C@@H](O)C[C@@H]1O [Calcitriol, calcitriol] | 97.7 | 98.6 | 98.1 | 97.7 | 93.4 | 93.0 | 100.9 | 100.5 | 99.5 | 99.5 | – | – | –
CCC(=O)O[C@]1(C(=O)CCl)[C@@H](C)C[C@H]2[C@@H]3CCC4=CC(=O)C=C[C@]4(C)[C@@]3(F)[C@@H](O)C[C@@]21C [Clobetasol Propionate, clobetasol 17-propionate] | – | – | – | – | – | – | – | – | – | – | 50.40 | 9.10 | 120.70
